These results are taken from publication PMC6099693, “Design, Synthesis, and In Vitro Evaluation of Novel Histone H3 Peptide-Based LSD1 Inactivators Incorporating α,α-Disubstituted Amino Acids with γ-Turn-Inducing Structures” (Molecules : A Journal of Synthetic Chemistry and Natural …, 2018).

*1 amine or outer side, *2 acyl side, *3 side chain or, on linkers, in order; H or OH if unused. Where a SMILES comes first, the peptide text is derived from it. [ ]: non-standard residue; d: D form. Lys((1R,2S)-2-Ph-cPr) = N[C@@H](CCCCN[C@@H]1C[C@H]1c1ccccc1)C(=O)O; X1 = O=C(C1(N[*:1])C2CC3CC(C2)CC1C3)[*:2]; Ac6c = NC1(C(=O)O)CCCCC1; Aib = CC(C)(N)C(=O)O Where only a bound is given, the exact number is not on record here.

Common to all, as to type: biochemical
In assay [1] the target is T1, MAO-A (Homo sapiens, UniProt P21397).
T1 construct: purchased Sigma-Aldrich
T1 sequence (P21397 1-527): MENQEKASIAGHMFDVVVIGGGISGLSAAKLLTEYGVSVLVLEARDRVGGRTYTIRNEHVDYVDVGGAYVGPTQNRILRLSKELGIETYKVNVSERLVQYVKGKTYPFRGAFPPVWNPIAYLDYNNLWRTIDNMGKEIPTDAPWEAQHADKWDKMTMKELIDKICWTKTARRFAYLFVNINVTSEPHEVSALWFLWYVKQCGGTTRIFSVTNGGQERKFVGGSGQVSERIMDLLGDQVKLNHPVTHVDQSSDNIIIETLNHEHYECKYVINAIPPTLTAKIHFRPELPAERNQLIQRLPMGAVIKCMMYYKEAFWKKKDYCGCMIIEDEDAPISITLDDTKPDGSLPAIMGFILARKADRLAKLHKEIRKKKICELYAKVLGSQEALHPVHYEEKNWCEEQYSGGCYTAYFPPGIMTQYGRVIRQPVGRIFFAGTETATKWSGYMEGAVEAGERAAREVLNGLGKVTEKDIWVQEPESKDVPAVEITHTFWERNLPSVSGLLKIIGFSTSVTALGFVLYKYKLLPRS
Nature of the assay: MAO-Glo assay, MAO-A inhibitory activity. The conditions noted are these: for IC50: Promega V1401, MAO-A 18 units/mL, substrate 160 µM, room temperature, 60 min, chemiluminescence, means ± S.D. of at least three experiments. The method, then:
(§1) We assayed for the LSD1 inhibitory activities of novel peptides 2a–c. The assay was performed with an LSD1 Fluorometric Drug Discovery Kit (Enzo Life Sciences, New York, NY, USA, BML-AK544-0001). […] Next, we examined the time-dependency of LSD1 inhibition by peptides 2a–c. […] We also assayed for the inhibitory activities of monoamine oxidases (MAOs), which are FAD-dependent oxidases associated with neurotransmitter metabolism, to investigate the selectivity toward LSD1. For this investigation, we used a MAO-Glo^TM Assay System (Promega, Madison, WI, USA, V1401).
(§2) Assays for MAO inhibitory activity were carried out according to the supplier’s protocol using a MAO-Glo^TM Assay System (Promega, V1401). […] Reactions were stopped after 60 min by adding reconstituted Luciferin Detection Reagent (50 µL/well). Then, 20 min after the addition of this reagent, the chemiluminescence of the wells was measured with a 2030 ARVO^TM X3 Multilabel Reader (PerkinElmer). For data processing, the same procedure as that for LSD1 inhibitory activity was used.

In assay [2] the target is T2, MAO-B (Homo sapiens, UniProt P27338).
T2 construct: purchased Sigma-Aldrich
T2 sequence (P27338 1-520): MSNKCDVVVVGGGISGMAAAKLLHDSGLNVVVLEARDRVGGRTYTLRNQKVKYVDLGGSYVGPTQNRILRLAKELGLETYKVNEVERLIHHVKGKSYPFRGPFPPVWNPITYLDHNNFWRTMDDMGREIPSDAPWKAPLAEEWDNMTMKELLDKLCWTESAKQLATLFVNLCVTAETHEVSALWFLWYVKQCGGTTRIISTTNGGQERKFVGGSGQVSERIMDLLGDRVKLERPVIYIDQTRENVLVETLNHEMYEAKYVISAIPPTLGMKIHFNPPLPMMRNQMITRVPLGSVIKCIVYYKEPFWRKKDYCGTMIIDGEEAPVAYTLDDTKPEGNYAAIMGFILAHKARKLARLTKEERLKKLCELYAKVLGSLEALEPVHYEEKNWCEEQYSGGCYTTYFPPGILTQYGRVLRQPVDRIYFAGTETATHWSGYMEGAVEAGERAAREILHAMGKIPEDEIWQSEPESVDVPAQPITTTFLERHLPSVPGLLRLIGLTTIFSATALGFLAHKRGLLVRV
Nature of the assay: MAO-Glo assay, MAO-B inhibitory activity. The conditions noted are these: Promega V1401; MAO-B 6 units/mL, substrate 16 µM; room temperature, 60 min; chemiluminescence; means ± S.D. of at least three experiments. The method, then:
as §1, §2

Assay [3] addresses T3, LSD1 (Homo sapiens, UniProt O60341).
T3 construct: purchased Enzo Life Sciences BML-AK544-0001
The assay is described as follows: LSD1 Fluorometric Drug Discovery Kit, LSD1 inhibitory activity. The conditions noted are these: for IC50: Enzo BML-AK544-0001 kit, 15 min pre-incubation with LSD1 (0.5 µg/well), room temperature, H3K4me2 peptide 20 µM, 30 min, fluorescence 540/590 nm, means ± S.D. of at least three experiments; for LSD1 inhibitory activity: comparison within Table 1. The method, then: The assay was performed with an LSD1 Fluorometric Drug Discovery Kit (Enzo Life Sciences, New York, NY, USA, BML-AK544-0001). […] We also assayed for the inhibitory activities of monoamine oxidases (MAOs), which are FAD-dependent oxidases associated with neurotransmitter metabolism, to investigate the selectivity toward LSD1. For this investigation, we used a MAO-Glo^TM Assay System (Promega, Madison, WI, USA, V1401).
Inhibitors were pre-incubated with LSD1 (0.5 µg/well; room temperature; 15 min) before reactions were initiated by the addition of H3K4me2 peptide (2.3 µg/well, 20 µM) into all wells except the blank. After incubation (room temperature; 30 min), CeLLestial^TM Red and HRP in the assay buffer were added and the incubation was prolonged (room temperature; 5 min). […] IC50 values were determined by regression analysis of the concentration/inhibition data.

By IC50 is commonly meant the concentration that inhibits the measured activity by half. Read a high IC50 as weaker potency in that assay.

For the molecule `N[C@@H]1C[C@H]1c1ccccc1` (relative stereo) [PCPA, trans-2-phenylcyclopropylamine, reference compound], the “MAO-A inactivation” value in assay [1] (peptides at 10 µM, PCPA as positive control) was “inactivated both MAO-A and MAO-B”.

In the case of `C[C@H](N)C(=O)N[C@@H](CCCNC(=N)N)C(=O)NC1(C(=O)N[C@@H](CCCCN[C@@H]2C[C@H]2c2ccccc2)C(=O)NC2(C(=O)N[C@H](C(=O)N[C@@H](C)C(=O)N[C@@H](CCCNC(=N)N)C(=O)N[C@@H](CCCCN)C(=O)N[C@@H](CO)C(=O)N[C@H](C(=O)O)[C@@H](C)O)[C@@H](C)O)C3CC4CC(C3)CC2C4)C2CC3CC(C2)CC1C3` (stereo partly drawn) [2c] (H-AR[X1][Lys((1R,2S)-2-Ph-cPr)][X1]TARKST-OH; C-terminus assumed), the IC50 in assay [2] is over 10 µM; in assay [3], 0.0724 ± 0.004 µM; in assay [1], over 10 µM.

Consider `C[C@H](N)C(=O)N[C@@H](CCCNC(=N)N)C(=O)N[C@H](C(=O)N[C@@H](CCCCN[C@@H]1C[C@H]1c1ccccc1)C(=O)N[C@@H](CCC(N)=O)C(=O)N[C@H](C(=O)N[C@@H](C)C(=O)N[C@@H](CCCNC(=N)N)C(=O)N[C@@H](CCCCN)C(=O)N[C@@H](CO)C(=O)N[C@H](C(=O)O)[C@@H](C)O)[C@@H](C)O)[C@@H](C)O` [peptide 1, reference compound], for which the half-inhibitory concentration (IC50) in assay [2] was over 10 µM; in assay [3] it was 0.126 ± 0.002 µM; in assay [1] it was over 10 µM. In addition, the “LSD1 inhibitory activity” value in assay [3] is recorded as “inactivated LSD1 potently compared to PCPA”.

As for `C[C@H](N)C(=O)N[C@@H](CCCNC(=N)N)C(=O)NC(C)(C)C(=O)N[C@@H](CCCCN[C@@H]1C[C@H]1c1ccccc1)C(=O)NC(C)(C)C(=O)N[C@H](C(=O)N[C@@H](C)C(=O)N[C@@H](CCCNC(=N)N)C(=O)N[C@@H](CCCCN)C(=O)N[C@@H](CO)C(=O)N[C@H](C(=O)O)[C@@H](C)O)[C@@H](C)O` [peptide 2a] (H-AR[Aib][Lys((1R,2S)-2-Ph-cPr)][Aib]TARKST-OH; C-terminus assumed), the IC50 in assay [2] was over 10 µM; in assay [3], 0.0891 ± 0.0053 µM; in assay [1], over 10 µM.

For `C[C@H](N)C(=O)N[C@@H](CCCNC(=N)N)C(=O)NC1(C(=O)N[C@@H](CCCCN[C@@H]2C[C@H]2c2ccccc2)C(=O)NC2(C(=O)N[C@H](C(=O)N[C@@H](C)C(=O)N[C@@H](CCCNC(=N)N)C(=O)N[C@@H](CCCCN)C(=O)N[C@@H](CO)C(=O)N[C@H](C(=O)O)[C@@H](C)O)[C@@H](C)O)CCCCC2)CCCCC1` [peptide 2b] (H-AR[Ac6c][Lys((1R,2S)-2-Ph-cPr)][Ac6c]TARKST-OH; C-terminus assumed), the figures for the 50% inhibitory concentration (IC50) in assay [2], in assay [3] and in assay [1] were over 10 µM, 0.0584 ± 0.0025 µM and over 10 µM, respectively. This molecule returned an LSD1 selectivity in assay [3] (LSD1 selectivity, MAO-A/MAO-B assayed for selectivity toward LSD1) of over 170 fold. In addition, the “LSD1 inhibitory activity” value in assay [3] was “the most potent LSD1 inactivator among the peptides tested in this study”.
